The values below come from patent US20120101098A1, “3,28-DISUBSTITUTED BETULINIC ACID DERIVATIVES AS ANTI-HIV AGENTS” (priority 2009, published 2012).

pEC50: −log10 of the molar value. Like-named read-outs stand apart in the source and are kept apart here. A value given as a limit tells only on which side of the number the result lay.

For data set [1], the system named is mock-infected MT-2 cell.
Procedure: (§1) HIV-1IIIB Replication Inhibition Assay in MT-2 Lymphocytes. The evaluation of HIV-1 inhibition was carried out as follows. […] Control wells containing virus and cells only (no drug) and cells only (no virus or drug) were also prepared. A second identical set of samples were added to cells under the same conditions without virus (mock infection) for cytotoxicity determinations (CC50 defined below). […] On day 4 PI, the assay was terminated and culture supernatants were harvested for p24 antigen ELISA analysis. The compound cytotoxicity was determined by XTT using the mock-infected sample wells.
The test system of data set [2] is mock-infected MT-4 cell. Briefly: Cytotoxicity in mock-infected MT-4 cells. It is filed as cell-based.
Data set [3] relates to HIV-1NL4-3. Briefly: HIV-1NL4-3 replication inhibition assay in MT-4 lymphocytes (p24 antigen ELISA). It counts as cell-based. An excerpt: HIV-1NL4-3 Replication Inhibition Assay in MT-4 Lymphocytes. A previously described HIV-1 infectivity assay was used.^28,33 A 96-well microtiter plate was used to set up the HIV-1NL4-3 replication screening assay. NL4-3 variants at a multiplicity of infection (MOI) of 0.01 were used to infect MT4 cells. Culture supernatants were collected on day 4 post-infection for the p24 antigen capture using an ELISA kit from ZeptoMetrix Corporation (Buffalo, N.Y.).

Data set [4] deals with HIV-1IIIB. In words: HIV-1IIIB replication inhibition assay in MT-2 lymphocytes (p24 antigen ELISA). As to conditions: HIV-1IIIB infected MT-2 cell lines; concentration that inhibits HIV-1IIIB replication by 50%; NS: no suppression at concentrations below the CC50. It counts as cell-based.
Procedure: as §1
In data set [5] the test system is mock-infected MT-2 cell. In words: Cytotoxicity in mock-infected MT-2 cells (XTT). As to conditions: concentration that inhibits mock-infected MT-2 cell growth by 50%.
Procedure: as §1
The mark [6] stands for this setting: HIV-1NL4-3 infected MT-4 cell lines, concentration that inhibits HIV-1NL4-3 replication by 50%.

Compound `Cc1cn([C@H]2C[C@H](N=[N+]=[N-])[C@@H](CO)O2)c(=O)[nH]c1=O` [AZT, reference compound] had a CC50 in data set [1] of 1870 µM.

The compound `C=C(C)[C@@H]1CC[C@]2(C(=O)NCCCCCCCC(=O)N[C@@H](CC(C)C)[C@H](O)CC(=O)O)CC[C@]3(C)[C@H](CC[C@@H]4[C@@]5(C)CC[C@H](O)C(C)(C)[C@@H]5CC[C@]43C)[C@@H]12` [Compound 3b, IC9564, reference compound] gave a CC50 in data set [2] of over 10 µM. Also, the pEC50 in data set [3] (setting [6]) is 7.05.

Compound `C=C(C)[C@@H]1CC[C@]2(C(=O)NCCCCCCCNC(C)=O)CC[C@]3(C)[C@H](CC[C@@H]4[C@@]5(C)CC[C@H](O)C(C)(C)[C@@H]5CC[C@]43C)[C@@H]12` [Compound 4, A43-D, reference compound] displayed a CC50 in data set [2] of over 10 µM. For the same compound, the pEC50 is 7.04 in data set [3] (setting [6]) and 7.00 in data set [3] (value of prior best entry inhibitor 4 as given in text, unit inferred).

On to `C=C(COCC)[C@@H]1CC[C@]2(C(=O)N[C@@H](CC(C)C)C(=O)O)CC[C@]3(C)[C@H](CC[C@@H]4[C@@]5(C)CC[C@H](O)C(C)(C)[C@@H]5CC[C@]43C)[C@@H]12` [Compound 10, N-[3β-Hydroxy-30-ethoxy-lup-20(29)-en-28-oyl]-leucine], for which the pEC50 in data set [4] was under 4.78. Further, the CC50 in data set [5] turned out to be 40.7 µM.

`C=C(COCCC)[C@@H]1CC[C@]2(C(=O)N[C@@H](CC(C)C)C(=O)O)CC[C@]3(C)[C@H](CC[C@@H]4[C@@]5(C)CC[C@H](O)C(C)(C)[C@@H]5CC[C@]43C)[C@@H]12` [Compound 11, N-[3β-Hydroxy-30-propoxy-lup-20(29)-en-28-oyl]-leucine]: the pEC50 in data set [4] was under 4.78. It took 25.3 µM to reach half-maximal cytotoxicity in data set [5] (CC50).

`C=C(COCCCC)[C@@H]1CC[C@]2(C(=O)N[C@@H](CC(C)C)C(=O)O)CC[C@]3(C)[C@H](CC[C@@H]4[C@@]5(C)CC[C@H](O)C(C)(C)[C@@H]5CC[C@]43C)[C@@H]12` [Compound 12, N-[3β-Hydroxy-30-butoxy-lup-20(29)-en-28-oyl]-leucine] had a pEC50 in data set [4] of under 4.78. Besides, the CC50 in data set [5] was 24.9 µM.

`C=C(COCCc1ccccc1)[C@@H]1CC[C@]2(C(=O)N[C@@H](CC(C)C)C(=O)O)CC[C@]3(C)[C@H](CC[C@@H]4[C@@]5(C)CC[C@H](O)C(C)(C)[C@@H]5CC[C@]43C)[C@@H]12` [Compound 13, N-[3β-Hydroxy-30-phenethoxy-lup-20(29)-en-28-oyl]-leucine]: the pEC50 in data set [4] is under 4.78. In data set [5], this compound gave a CC50 of 21.7 µM.

`C=C(COCCc1ccc(OC)cc1)[C@@H]1CC[C@]2(C(=O)N[C@@H](CC(C)C)C(=O)O)CC[C@]3(C)[C@H](CC[C@@H]4[C@@]5(C)CC[C@H](O)C(C)(C)[C@@H]5CC[C@]43C)[C@@H]12` [Compound 14, N-[3β-Hydroxy-30-(4′-methoxyphenethoxy)-lup-20(29)-en-28-oyl]-leucine] showed a pEC50 in data set [4] of under 4.78. Moreover, the CC50 in data set [1] turned out to be 16.7 µM.

For `C=C(COCCc1ccc(F)cc1)[C@@H]1CC[C@]2(C(=O)N[C@@H](CC(C)C)C(=O)O)CC[C@]3(C)[C@H](CC[C@@H]4[C@@]5(C)CC[C@H](O)C(C)(C)[C@@H]5CC[C@]43C)[C@H]12` [Compound 15, N-[3β-Hydroxy-30-(4% fluorophenethoxy)-lup-20(29)-en-28-oyl]-leucine], in data set [4], the pEC50 was under 4.78. The same compound had a CC50 in data set [1] of 24.4 µM.

In turn, `C=C(COCCc1ccc(Br)cc1)[C@@H]1CC[C@]2(C(=O)N[C@@H](CC(C)C)C(=O)O)CC[C@]3(C)[C@H](CC[C@@H]4[C@@]5(C)CC[C@H](O)C(C)(C)[C@@H]5CC[C@]43C)[C@@H]12` [Compound 16, N-[3β-Hydroxy-30-(4′-bromophenethoxy)-lup-20(29)-en-28-oyl]-leucine] gave a pEC50 in data set [4] of under 4.78. The compound further registered a cytotoxic concentration (CC50) in data set [1] of 20.8 µM.

As for `C=C(COCCc1ccc(Cl)cc1)[C@@H]1CC[C@]2(C(=O)N[C@@H](CC(C)C)C(=O)O)CC[C@]3(C)[C@H](CC[C@@H]4[C@@]5(C)CC[C@H](O)C(C)(C)[C@@H]5CC[C@]43C)[C@@H]12` [Compound 17, N-[3β-Hydroxy-30-(4′-chlorophenethoxy)-lup-20(29)-en-28-oyl]-leucine], the pEC50 in data set [4] is 4.56. The midpoint of cytotoxicity in data set [1], the CC50, lay at 34.6 µM.

In data set [4], `C=C(CN1CCOCC1)C1CCC2(C(=O)NC(CC(C)C)C(=O)O)CCC3(C)C(CCC4C5(C)CCC(O)C(C)(C)C5CCC43C)C12` (stereo not drawn) [Compound 18, N-[3β-Hydroxy-30-morpholino-lup-20(29)-en-28-oyl]-leucine] had a pEC50 of under 4.78. In addition, the midpoint of cytotoxicity in data set [5], the CC50, lay at 27.5 µM.

For the compound `C=C(COCCN1CCOCC1)[C@@H]1CC[C@]2(C(=O)N[C@@H](CC(C)C)C(=O)O)CC[C@]3(C)[C@H](CC[C@@H]4[C@@]5(C)CC[C@H](O)C(C)(C)[C@@H]5CC[C@]43C)[C@@H]12` [Compound 19, N-[3β-Hydroxy-30-(2′-morpholinoethoxy)-lup-20(29)-en-28-oyl]-leucine], the pEC50 in data set [4] was 4.58. Moreover, the midpoint of cytotoxicity in data set [1], the CC50, lay at 35.8 µM.

Regarding `C=C(C)[C@@H]1CC[C@]2(C(=O)N[C@@H](CC(C)C)C(=O)O)CC[C@]3(C)[C@H](CC[C@@H]4[C@@]5(C)CC[C@H](O)C(C)(C)[C@@H]5CC[C@]43C)[C@@H]12` [Compound 22, N-[3β-Hydroxy-lup-20(29)-en-28-oyl]-leucine], the CC50 in data set [1] worked out at 29.8 µM.

`C=C(CBr)[C@@H]1CC[C@]2(C(=O)N[C@@H](CC(C)C)C(=O)O)CC[C@]3(C)[C@H](CC[C@@H]4[C@@]5(C)CC[C@H](O)C(C)(C)[C@@H]5CC[C@]43C)[C@@H]12` [Compound 24, N-[3β-Hydroxy-30-bromo-lup-20(29)-en-28-oyl]-leucine]: the pEC50 in data set [4] was under 4.78. In data set [5], this compound had a CC50 of 26.8 µM.

`C=C(CBr)[C@@H]1CC[C@]2(C(=O)NCCCCCCCC(=O)O)CC[C@]3(C)[C@H](CC[C@@H]4[C@@]5(C)CC[C@H](O)C(C)(C)[C@@H]5CC[C@]43C)[C@@H]12` [Compound 25, N-[3β-Hydroxy-30-bromo-lup-20(29)-en-28-oyl]-8-aminooctanoic acid] gave a pEC50 in data set [4] of 5.64. The same compound gave a CC50 in data set [1] of 36.9 µM.

Compound `C=C(CO)[C@@H]1CC[C@]2(C(=O)N[C@@H](CC(C)C)C(=O)O)CC[C@]3(C)[C@H](CC[C@@H]4[C@@]5(C)CC[C@H](O)C(C)(C)[C@@H]5CC[C@]43C)[C@@H]12` [Compound 28, N-[3β,30-Dihydroxy-lup-20(29)-en-28-oyl]-leucine] gave a negative-log EC50 (pEC50) in data set [4] of under 4.78. Further, the midpoint of cytotoxicity in data set [5], the CC50, lay at 30.7 µM.

Turning to `C=C(CO)[C@@H]1CC[C@]2(C(=O)NCCCCCCCC(=O)O)CC[C@]3(C)[C@H](CC[C@@H]4[C@@]5(C)CC[C@H](O)C(C)(C)[C@@H]5CC[C@]43C)[C@@H]12` [Compound 29, N-[3β,30-Dihydroxy-lup-20(29)-en-28-oyl]-8-aminooctanoic acid], the pEC50 in data set [4] is 4.83. The midpoint of cytotoxicity in data set [1], the CC50, lay at 40.7 µM.

`C=C(C)[C@@H]1CC[C@]2(C(=O)N3CCC(CCCC(=O)O)CC3)CC[C@]3(C)[C@H](CC[C@@H]4[C@@]5(C)CC[C@H](OC(=O)CC(C)(C)C(=O)O)C(C)(C)[C@@H]5CC[C@]43C)[C@@H]12` [Compound 39, N-[3β-O-(3′,3′-Dimethylsuccinyl)-lup-20(29)-en-28-oyl]-4-piperidine butyric acid] gave a pEC50 in data set [4] of 7.82. This compound also yielded a CC50 in data set [5] of 20.8 µM.

`C=C(C)[C@@H]1CC[C@]2(C(=O)N3CCC(CCCC(=O)O)CC3)CC[C@]3(C)[C@H](CC[C@@H]4[C@@]5(C)CC[C@H](OC(=O)CCC(C)(C)C(=O)O)C(C)(C)[C@@H]5CC[C@]43C)[C@@H]12` [Compound 40, N-[3β-O-(4′,4′-Dimethylglutaryl)-lup-20(29)-en-28-oyl]-4-piperidine butyric acid]: the negative-log EC50 (pEC50) in data set [4] was 6.64. Also, half-maximal cytotoxicity in data set [5] (CC50) was put at 33.2 µM.

`C=C(C)[C@@H]1CC[C@]2(C(=O)N3CCC(CCCC(=O)NC)CC3)CC[C@]3(C)[C@H](CC[C@@H]4[C@@]5(C)CC[C@H](OC(=O)CC(C)(C)C(=O)O)C(C)(C)[C@@H]5CC[C@]43C)[C@@H]12` [Compound 45]: the pEC50 was 7.17 in data set [4] and 6.62 in data set [3] (setting [6]). For the same compound, the CC50 in data set [2] was over 10 µM; in data set [5], 33.3 µM.

As for `C=C(C)[C@@H]1CC[C@]2(C(=O)N3CCC(CCCC(=O)N4CCOCC4)CC3)CC[C@]3(C)[C@H](CC[C@@H]4[C@@]5(C)CC[C@H](OC(=O)CC(C)(C)C(=O)O)C(C)(C)[C@@H]5CC[C@]43C)[C@@H]12` [Compound 46, N′-[N-[3β-O-(3′,3′-Dimethylsuccinyl)-lup-20(29)-en-28-oyl]-4-piperidine-butanoyl]-morpholine], the figures for the negative-log EC50 (pEC50) in data set [4] and in data set [3] (setting [6]) were 7.96 and 7.15, respectively. Also, the results for the half-maximal cytotoxic concentration (CC50) in data set [2] and in data set [5] were 8.8 µM and 19.2 µM, respectively.

Consider `C=C(C)[C@@H]1CC[C@]2(C(=O)N3CCC(CCCC(=O)NCCN4CCOCC4)CC3)CC[C@]3(C)[C@H](CC[C@@H]4[C@@]5(C)CC[C@H](OC(=O)CC(C)(C)C(=O)O)C(C)(C)[C@@H]5CC[C@]43C)[C@@H]12` [Compound 47, N′-[N-[3β-O-(3′,3′-Dimethylsuccinyl)-lup-20(29)-en-28-oyl]-4-piperidine-butanoyl]-2-aminoethylmorpholine], for which the negative-log EC50 (pEC50) in data set [4] was 8.15; in data set [3] (setting [6]), 7.46. The values for the CC50 in data set [2] and in data set [5] were 8.5 µM and 17.3 µM, respectively.

Turning to `C=C(C)[C@@H]1CC[C@]2(C(=O)N3CCC(CCCC(=O)NCCCN4CCOCC4)CC3)CC[C@]3(C)[C@H](CC[C@@H]4[C@@]5(C)CC[C@H](OC(=O)CC(C)(C)C(=O)O)C(C)(C)[C@@H]5CC[C@]43C)[C@@H]12` [Compound 48, N′-[N-[3β-O-(3′,3′-Dimethylsuccinyl)-lup-20(29)-en-28-oyl]-4-piperidine-butanoyl]-3-aminopropylmorpholine], the pEC50 in data set [4] was 8.22; in data set [3] (setting [6]), 7.51. Also, the half-maximal cytotoxic concentration (CC50) in data set [2] was determined as 8.6 µM; in data set [5] it was 18.5 µM.
